Data from US9630922B2, “3-spiro-7-hydroxamic acid tetralins as HDAC inhibitors” (Forma Therapeutics, Inc., priority 2015, dated 2017).

Biological target: T1, HDAC6 (Homo sapiens, UniProt Q9UBN7)
T1 construct: Full length human recombinant HDAC6 protein was expressed in baculoviral system; made in house; host or cells: baculoviral system
T1 sequence (Q9UBN7 1-1215): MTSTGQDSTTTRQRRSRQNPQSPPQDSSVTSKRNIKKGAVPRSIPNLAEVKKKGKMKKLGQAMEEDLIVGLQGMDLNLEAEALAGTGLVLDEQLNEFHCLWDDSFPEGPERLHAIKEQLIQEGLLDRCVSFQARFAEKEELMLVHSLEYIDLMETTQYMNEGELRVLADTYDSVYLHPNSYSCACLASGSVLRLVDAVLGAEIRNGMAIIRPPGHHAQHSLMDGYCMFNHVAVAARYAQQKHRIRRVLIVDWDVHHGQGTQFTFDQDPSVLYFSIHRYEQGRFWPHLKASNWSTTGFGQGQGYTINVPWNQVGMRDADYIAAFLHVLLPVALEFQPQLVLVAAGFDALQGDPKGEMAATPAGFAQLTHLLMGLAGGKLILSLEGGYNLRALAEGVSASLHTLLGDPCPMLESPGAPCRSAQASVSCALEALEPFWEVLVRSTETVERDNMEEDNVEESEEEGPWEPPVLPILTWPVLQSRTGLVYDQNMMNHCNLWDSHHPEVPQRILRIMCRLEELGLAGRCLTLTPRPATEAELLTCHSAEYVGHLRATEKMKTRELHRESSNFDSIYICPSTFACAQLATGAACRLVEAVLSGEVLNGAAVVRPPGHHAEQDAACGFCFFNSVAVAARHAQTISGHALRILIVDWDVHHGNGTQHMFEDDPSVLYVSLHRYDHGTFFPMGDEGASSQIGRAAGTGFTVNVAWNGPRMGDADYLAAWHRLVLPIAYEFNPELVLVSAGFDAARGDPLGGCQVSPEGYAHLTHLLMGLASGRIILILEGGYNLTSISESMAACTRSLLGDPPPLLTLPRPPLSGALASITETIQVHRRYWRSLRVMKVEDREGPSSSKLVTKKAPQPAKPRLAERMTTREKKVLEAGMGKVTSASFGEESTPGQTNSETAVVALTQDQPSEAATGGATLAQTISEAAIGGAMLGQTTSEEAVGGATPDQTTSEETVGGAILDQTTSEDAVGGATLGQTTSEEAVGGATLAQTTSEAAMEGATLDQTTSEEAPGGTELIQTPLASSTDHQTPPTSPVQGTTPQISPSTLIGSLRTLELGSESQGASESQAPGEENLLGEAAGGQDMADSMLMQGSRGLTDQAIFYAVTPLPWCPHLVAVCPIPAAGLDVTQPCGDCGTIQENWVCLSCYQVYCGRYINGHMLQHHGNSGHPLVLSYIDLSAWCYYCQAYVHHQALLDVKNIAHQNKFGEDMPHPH
Experiment: In vitro Histone Deacetylase Assay (enzymatic HDAC6 electrophoretic mobility shift assay)
Format: biochemical
Details: full length human recombinant HDAC6, 1 nM enzyme, 2 μM peptide substrate RHKK(Ac)-NH2, 25° C.; read-out: HDAC6 activity range
Summary of the method: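 Deacetylation was read by microfluidic mobility shift as product/(substrate+product) peak ratio and normalised to 0% and 100% inhibition controls. Reactions used 1 nM baculovirus-expressed full-length human HDAC6 and 2 μM labelled RHKK(Ac)-NH2 in pH 7.5 HEPES buffer with 1% DMSO at 25 °C. IC50 was from 4-parameter fits of 12 concentrations.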

| IC50 [nM] | Compound |
| --- | --- |
| ≤ 100 | N#Cc1cccc(N2CC[C@@]3(CCc4cc(C(=O)NO)ccc4C3)C2=O)c1 [Compound I-116, (S)-1′-(3-cyanophenyl)-N-hydroxy-2′-oxo-3,4-dihydro-1H-spiro[naphthalene-2,3′-pyrrolidine]-6-carboxamide] |
| ≤ 100 | O=C(NO)c1ccc2c(c1)CC[C@@]1(CCN(c3cccc(F)c3)C1=O)C2 [Compound I-117, (S)-1′-(3-fluorophenyl)-N-hydroxy-2′-oxo-3,4-dihydro-1H-spiro[naphthalene-2,3′-pyrrolidine]-6-carboxamide] |
| ≤ 100 | O=C(NO)c1ccc2c(c1)CC[C@]1(CCN(c3ccc(F)c(F)c3)C1=O)C2 [Compound I-119, (R)-1′-(3,4-difluorophenyl)-N-hydroxy-2′-oxo-3,4-dihydro-1H-spiro[naphthalene-2,3′-pyrrolidine]-6-carboxamide] |
| ≤ 100 | O=C(NO)c1ccc2c(c1)CC[C@]1(CCN(c3ccc(F)cc3)C1=O)C2 [Compound I-120, (R)-1′-(4-fluorophenyl)-N-hydroxy-2′-oxo-3,4-dihydro-1H-spiro[naphthalene-2,3′-pyrrolidine]-6-carboxamide] |
| ≤ 100 | O=C(NO)c1ccc2c(c1)CC[C@]1(CCN(c3cccc(F)c3F)C1=O)C2 [Compound I-123, (R)-1′-(2,3-difluorophenyl)-N-hydroxy-2′-oxo-3,4-dihydro-1H-spiro[naphthalene-2,3′-pyrrolidine]-6-carboxamide] |
| ≤ 100 | COc1ccc(N2CC[C@@]3(CCc4cc(C(=O)NO)ccc4C3)C2=O)c(F)c1 [Compound I-127, (2S)-1′-(2-fluoro-4-methoxyphenyl)-N-hydroxy-2′-oxo-3,4-dihydro-1H-spiro[naphthalene-2,3′-pyrrolidine]-6-carboxamide] |
| ≤ 100 | COc1cc(N2CC[C@]3(CCc4cc(C(=O)NO)ccc4C3)C2=O)ccc1F [Compound I-128, (2R)--(4-fluoro-3-methoxyphenyl)-N-hydroxy-2′-oxo-3,4-dihydro-1H-spiro[naphthalene-2,3′-pyrrolidine]-6-carboxamide] |
| ≤ 100 | COc1cc(N2CC[C@@]3(CCc4cc(C(=O)NO)ccc4C3)C2=O)ccc1F [Compound I-129, (2S)-1′-(4-fluoro-3-methoxyphenyl)-N-hydroxy-2′-oxo-3,4-dihydro-1H-spiro[naphthalene-2,3′-pyrrolidine]-6-carboxamide] |
| ≤ 100 | Cc1ccc(N2CC[C@]3(CCc4cc(C(=O)NO)ccc4C3)C2=O)cn1 [Compound I-133, (R)-N-hydroxy-1′-(6-methylpyridin-3-yl)-2′-oxo-3,4-dihydro-1H-spiro[naphthalene-2,3′-pyrrolidine]-6-carboxamide] |
| ≤ 100 | Cc1ccc(N2CC[C@@]3(CCc4cc(C(=O)NO)ccc4C3)C2=O)cn1 [Compound I-134, (S)-N-hydroxy-1′-(6-methylpyridin-3-yl)-2′-oxo-3,4-dihydro-1H-spiro[naphthalene-2,3′-pyrrolidine]-6-carboxamide] |
| ≤ 100 | O=C(NO)c1ccc2c(c1)CC[C@]1(CCN(c3cncc(Cl)c3)C1=O)C2 [Compound I-139, (R)-1′-(5-chloropyridin-3-yl)-N-hydroxy-2′-oxo-3,4-dihydro-1H-spiro[naphthalene-2,3′-pyrrolidine]-6-carboxamide] |

Further lines, the compound ahead of its results:

| Compound | IC50 [nM] |
| --- | --- |
| COc1ccc(N2CC[C@@]3(CCc4cc(C(=O)NO)ccc4C3)C2=O)cn1 [Compound I-118, (S)-N-hydroxy-1′-(6-methoxypyridin-3-yl)-2′-oxo-3,4-dihydro-1H-spiro[naphthalene-2,3′-pyrrolidine]-6-carboxamide] | ≤ 100 |
| O=C(NO)c1ccc2c(c1)CC[C@@]1(CCN(CC3COC3)C1=O)C2 [Compound I-122, (S)-N-hydroxy-1′-(oxetan-3-ylmethyl)-2′-oxo-3,4-dihydro-1H-spiro[naphthalene-2,3′-pyrrolidine]-6-carboxamide] | 100 to 500 |
| COc1ccc(N2CC[C@]3(CCc4cc(C(=O)NO)ccc4C3)C2=O)cc1 [Compound I-124, (R)-N-hydroxy-1′-(4-methoxyphenyl)-2′-oxo-3,4-dihydro-1H-spiro[naphthalene-2,3′-pyrrolidine]-6-carboxamide] | ≤ 100 |
| COc1cccc(N2CC[C@]3(CCc4cc(C(=O)NO)ccc4C3)C2=O)c1F [Compound I-125, (2R)-1′-(2-fluoro-3-methoxyphenyl)-N-hydroxy-2′-oxo-3,4-dihydro-1H-spiro[naphthalene-2,3′-pyrrolidine]-6-carboxamide] | ≤ 100 |
| COc1cccc(N2CC[C@@]3(CCc4cc(C(=O)NO)ccc4C3)C2=O)c1F [Compound I-126, (2S)-1′-(2-fluoro-3-methoxyphenyl)-N-hydroxy-2′-oxo-3,4-dihydro-1H-spiro[naphthalene-2,3′-pyrrolidine]-6-carboxamide] | ≤ 100 |
| O=C(NO)c1ccc2c(c1)CC[C@@]1(CCN(c3ccc(Cl)cn3)C1=O)C2 [Compound I-130, (S)-1′-(5-chloropyridin-2-yl)-N-hydroxy-2′-oxo-3,4-dihydro-1H-spiro[naphthalene-2,3′-pyrrolidine]-6-carboxamide] | ≤ 100 |
| Cc1ncccc1N1CC[C@]2(CCc3cc(C(=O)NO)ccc3C2)C1=O [Compound I-131, (R)-N-hydroxy-1′-(2-methylpyridin-3-yl)-2′-oxo-3,4-dihydro-1H-spiro[naphthalene-2,3′-pyrrolidine]-6-carboxamide] | ≤ 100 |
| Cc1ncccc1N1CC[C@@]2(CCc3cc(C(=O)NO)ccc3C2)C1=O [Compound I-132, (S)-N-hydroxy-1′-(2-methylpyridin-3-yl)-2′-oxo-3,4-dihydro-1H-spiro[naphthalene-2,3′-pyrrolidine]-6-carboxamide] | ≤ 100 |
| Cc1cncc(N2CC[C@]3(CCc4cc(C(=O)NO)ccc4C3)C2=O)c1 [Compound I-135, (R)-N-hydroxy-1′-(5-methylpyridin-3-yl)-2′-oxo-3,4-dihydro-1H-spiro[naphthalene-2,3′-pyrrolidine]-6-carboxamide] | ≤ 100 |
| Cc1ccncc1N1CC[C@]2(CCc3cc(C(=O)NO)ccc3C2)C1=O [Compound I-136, (R)-N-hydroxy-1′-(4-methylpyridin-3-yl)-2′-oxo-3,4-dihydro-1H-spiro[naphthalene-2,3′-pyrrolidine]-6-carboxamide] | ≤ 100 |
| Cc1ccncc1N1CC[C@@]2(CCc3cc(C(=O)NO)ccc3C2)C1=O [Compound I-137, (S)-N-hydroxy-1′-(4-methylpyridin-3-yl)-2′-oxo-3,4-dihydro-1H-spiro[naphthalene-2,3′-pyrrolidine]-6-carboxamide] | ≤ 100 |
| O=C(NO)c1ccc2c(c1)CC[C@@]1(CCN(c3cncc(Cl)c3)C1=O)C2 [Compound I-138, (S)-1′-(5-chloropyridin-3-yl)-N-hydroxy-2′-oxo-3,4-dihydro-1H-spiro[naphthalene-2,3′-pyrrolidine]-6-carboxamide] | ≤ 100 |
| O=C(NO)c1ccc2c(c1)CC[C@]1(CCN(c3ccncc3Cl)C1=O)C2 [Compound I-140, (R)-1′-(3-chloropyridin-4-yl)-N-hydroxy-2′-oxo-3,4-dihydro-1H-spiro[naphthalene-2,3′-pyrrolidine]-6-carboxamide] | ≤ 100 |
| O=C(NO)c1ccc2c(c1)CC[C@@]1(CCN(c3ccncc3Cl)C1=O)C2 [Compound I-141, (S)-1′-(3-chloropyridin-4-yl)-N-hydroxy-2′-oxo-3,4-dihydro-1H-spiro[naphthalene-2,3′-pyrrolidine]-6-carboxamide] | ≤ 100 |
